Our source for the IC50 values is patent publication US20260184707A1, “PHARMACEUTICAL COMPOUNDS FOR THE TREATMENT OF COMPLEMENT MEDIATED DISORDERS” (ALEXION PHARMACEUTICALS, INC., priority 2022, published 2026).

Where only a bound is given, the exact number is not on record here.

The experiment deals with T1, Human complement C1s enzyme (Homo sapiens, UniProt P09871).
T1 construct: purified from human serum, Complement Technology, Inc; purchased Complement Technology, Inc; host or cells: human serum (plasma-derived native protein)
T1 sequence (P09871 438-688 limits assumed): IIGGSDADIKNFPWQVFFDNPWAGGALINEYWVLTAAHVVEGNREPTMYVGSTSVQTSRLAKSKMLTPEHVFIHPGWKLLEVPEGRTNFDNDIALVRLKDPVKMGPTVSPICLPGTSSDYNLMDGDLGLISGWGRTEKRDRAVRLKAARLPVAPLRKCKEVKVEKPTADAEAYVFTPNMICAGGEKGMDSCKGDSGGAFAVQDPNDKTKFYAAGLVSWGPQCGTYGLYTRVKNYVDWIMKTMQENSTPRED
T1 sequence (P09871 16-437 partner limits assumed): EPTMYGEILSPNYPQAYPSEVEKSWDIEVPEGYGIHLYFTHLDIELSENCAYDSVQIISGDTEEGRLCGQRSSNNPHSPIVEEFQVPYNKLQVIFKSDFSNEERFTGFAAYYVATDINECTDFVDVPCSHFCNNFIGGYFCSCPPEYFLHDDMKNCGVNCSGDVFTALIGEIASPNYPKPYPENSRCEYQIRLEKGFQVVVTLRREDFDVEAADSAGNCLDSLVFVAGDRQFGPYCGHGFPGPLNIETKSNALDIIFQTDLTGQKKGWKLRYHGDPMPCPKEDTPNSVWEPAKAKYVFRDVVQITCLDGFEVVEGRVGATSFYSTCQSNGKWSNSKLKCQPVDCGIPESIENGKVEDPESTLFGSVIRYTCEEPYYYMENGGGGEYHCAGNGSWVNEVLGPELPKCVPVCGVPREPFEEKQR
Nature of the experiment: Human C1s enzyme assay. It is filed as biochemical. The following applies: human complement C1s enzyme 1.16 nM, substrate Z-L-Lys-SBzl, A405; read-out: IC50 (Stars). An outline of the steps: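 Thioesterase activity followed colorimetrically (DTNB, A405, 30-s reads) using 100 μM Z-L-Lys-SBzl substrate. Enzyme, human serum-derived C1s at 1.16 nM final, was incubated with test compound for 5 min, room temperature, pH 7.5 Tris buffer with 1 M NaCl. Rate-versus-concentration data fitted by nonlinear regression for IC50.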

The term IC50 denotes the concentration at which inhibition is half-maximal. Take `O=C(Cn1c(-c2ccccc2)ncc(NC(=O)c2ccc3c(c2)-c2ccccc2C3(F)F)c1=O)NCc1cc2cnccc2[nH]1` [Compound 78, N-(1-(2-(((1H-pyrrolo[3,2-c]pyridin-2-yl)methyl)amino)-2-oxoethyl)-6-oxo-2-phenyl-1,6-dihydropyrimidin-5-yl)-9,9-difluoro-9H-fluorene-3-carbox-amide]: the 50% inhibitory concentration (IC50) is less than 100 nM.

Consider `C[C@@H](Nc1cnc(-c2ncco2)n(CC(=O)NCc2cc3cnccc3[nH]2)c1=O)c1ccc2oc3ccccc3c2c1` [Compound 320, (R)-N-((1H-pyrrolo[3,2-c]pyridin-2-yl)methyl)-2-(5-((1-(dibenzo[b,d]furan-2-yl)ethyl)-amino)-2-(oxazol-2-yl)-6-oxo-pyrimidin-1(6H)-yl)acetamide], for which the IC50 was less than 100 nM.

As for `C[C@@H](Nc1cnc(N2CC3CC3C2)n(CC(=O)NCc2cc3cnccc3[nH]2)c1=O)c1ccc2oc3ccccc3c2c1` (stereo partly drawn) [Compound 371, N-((1H-pyrrolo[3,2-c]pyridin-2-yl)methyl)-2-(2-(3-azabicyclo [3.1.0]hexan-3-yl)-5-(((R)-1-(dibenzo[b,d]furan-2-yl)ethyl)-amino)-6-oxopyrimidin-1(6H)-yl)acetamide], the IC50 is more than 1000 nM.

Consider `O=C(Cn1c(-c2ccccc2)ncc(Nc2ccc3oc4ccccc4c3c2)c1=O)NCc1cc2cnccc2[nH]1` [Compound 234, N-((1H-pyrrolo[3,2-c]pyridin-2-yl)methyl)-2-(5-(dibenzo [b,d]furan-2-ylamino)-6-oxo-2-phenylpyrimidin-1(6H)-yl)-acetamide], for which the IC50 is less than 100 nM.

Consider `Cc1ccccc1-c1ncc(N[C@H](C)c2ccc3oc4ccccc4c3c2)c(=O)n1CC(=O)NCc1cc2cnccc2[nH]1` [Compound 356, 2-[5-[[(1R)-1-dibenzofuran-2-ylethyl]amino]-2-(o-tolyl)-6-oxo-pyrimidin-1-yl]-N-(1H-pyrrolo[3,2-c]pyridine-2-ylmethyl)acetamide], for which the IC50 is more than 1000 nM.

In the case of `C[C@H](Nc1cnc(-c2ccccn2)n(CC(=O)NCc2cc3cnccc3[nH]2)c1=O)c1ccc2oc3ccccc3c2c1` [Compound 285, (S)—N-((1H-pyrrolo[3,2-c]pyridine-2-yl)methyl)-2-(5-((1-(dibenzo[b,d]furan-2-yl)ethyl)amino)-6-oxo-2-(pyridine-2-yl)pyrimidin-1(6H)-yl)acetamide], the 50% inhibitory concentration (IC50) is less than 100 nM.

Turning to `CS(=O)(=O)c1ccc(-c2ncc(NCCCc3ccccc3)c(=O)n2CC(=O)NCc2cc3cnccc3[nH]2)cc1` [Compound 69, N-((1H-pyrrolo[3,2-c]pyridine-2-yl)methyl)-2-(2-(4-(methylsulfonyl)phenyl)-6-oxo-5-((3-phenylpropyl)amino)pyrimidin-1(6H)-yl)acetamide], the half-inhibitory concentration (IC50) was less than 100 nM.

Take `O=C(Cn1c(-c2ccccc2)ncc(NC(=O)c2coc(-c3cccc(F)c3)n2)c1=O)NCc1cc2cnccc2[nH]1` [Compound 205, N-(1-(2-(((1H-pyrrolo[3,2-c]pyridine-2-yl)methyl)amino)-2-oxoethyl)-6-oxo-2-phenyl-1,6-dihydropyrimidin-5-yl)-2-(3-fluorophenyl)oxazole-4-carboxamide]: the IC50 was less than 100 nM.

Turning to `O=C(Cn1cncc(NC(=O)c2coc(-c3ccccc3)n2)c1=O)NCc1cc2cnccc2[nH]1` [Compound 392, N-(1-(2-(((1H-pyrrolo[3,2-c]pyridin-2-yl)methyl)amino)-2-oxoethyl)-6-oxo-1,6-dihydro-pyrimidin-5-yl)-2-phenyl-oxazole-4-carboxamide], the IC50 was less than 100 nM.

As for `C[C@@H](Nc1cnc(N2CC3(CCC3)C2)n(CC(=O)NCc2cc3cnccc3[nH]2)c1=O)c1ccc2oc3ccccc3c2c1` [Compound 373, (R)-N-((1H-pyrrolo[3,2-c]pyridin-2-yl)methyl)-2-(5-((1-(dibenzo[b,d]furan-2-yl)ethyl)-amino)-6-oxo-2-(2-azaspiro [3.3]heptan-2-yl)pyrimidin-1(6H)-yl)acetamide], the IC50 was more than 1000 nM.

For the compound `Cc1ncc(NC(=O)c2coc(-c3ccccc3)n2)c(=O)n1CC(=O)NCc1cc2cnccc2[nH]1` [Compound 414, N-(1-(2-(((1H-pyrrolo[3,2-c]pyridine-2-yl)methyl)amino)-2-oxoethyl)-2-methyl-6-oxo-1,6-dihydropyrimidin-5-yl)-2-phenyloxazole-4-carboxamide], the IC50 is less than 100 nM.

As to `CC(C)c1ncc(N[C@H](C)c2ccc3oc4ccccc4c3c2)c(=O)n1CC(=O)NCc1cc2cnccc2[nH]1` [Compound 341, (R)—N-((1H-pyrrolo[3,2-c]pyridine-2-yl)methyl)-2-(5-((1-(dibenzo[b,d]furan-2-yl)ethyl)amino)-2-isopropyl-6-oxopyrimidin-1(6H)-yl)acetamide], the IC50 was 100 to 1000 nM.

As to `O=C(Cn1c(-c2ccccn2)ncc(NCc2ccc3oc4ccccc4c3c2)c1=O)NCc1cc2cnccc2[nH]1` [Compound 252, N-((1H-pyrrolo[3,2-c]pyridin-2-yl)methyl)-2-(5-((dibenzo [b,d]furan-2-ylmethyl)amino)-6-oxo-2-(pyridin-2-yl)pyrimi-din-1(6H)-yl)acetamide], the IC50 is less than 100 nM.

Take `O=C(Cn1c(-c2ccccc2)ncc(NCC2CCC(c3ccccc3)CC2)c1=O)NCc1cc2cnccc2[nH]1` (centres unmarked) [Compound 303, N-((1H-pyrrolo[3,2-c]pyridine-2-yl)methyl)-2-(6-oxo-2-phenyl-5-(((4-phenylcyclohexyl)methyl)amino)pyrimidin-1(6H)-yl)acetamide]: the IC50 was less than 100 nM.

Turning to `COc1ccc(-c2ccc(C(=O)Nc3cnc(-c4ccccc4)n(CC(=O)NCc4cc5cnccc5[nH]4)c3=O)cc2)cc1` [Compound 98, N-(1-(2-(((1H-pyrrolo[3,2-c]pyridin-2-yl)methyl)amino)-2-oxoethyl)-6-oxo-2-phenyl-1,6-dihydropyrimidin-5-yl)-4′-methoxy-[1,1′-biphenyl]-4-carboxamide], the IC50 is less than 100 nM.

Turning to `O=C(Cn1c(-c2ccco2)ncc(NCc2ccc3oc4ccccc4c3c2)c1=O)NCc1cc2cnccc2[nH]1` [Compound 232, N-((1H-pyrrolo[3,2-c]pyridin-2-yl)methyl)-2-(5-((dibenzo [b,d]furan-2-ylmethyl)amino)-2-(furan-2-yl)-6-oxopyrimidin-1(6H)-yl)acetamide], the IC50 is less than 100 nM.

As for `O=C(Cn1c(N2CCC(F)(F)C2)ncc(NCc2ccc3oc4ccccc4c3c2)c1=O)NCc1c[nH]c2ccncc12` [Compound 271, N-((1H-pyrrolo[3,2-c]pyridin-3-yl)methyl)-2-(5-((dibenzo [b,d]furan-2-ylmethyl)amino)-2-(3,3-difluoropyrrolidin-1-yl)-6-oxopyrimidin-1(6H)-yl)acet-amide], the IC50 is less than 100 nM.

For `COc1cccc(-c2ccc(C(=O)Nc3cnc(-c4ccccc4)n(CC(=O)NCc4cc5cnccc5[nH]4)c3=O)cc2F)c1` [Compound 217, N-(1-(2-(((1H-pyrrolo[3,2-c]pyridine-2-yl)methyl)amino)-2-oxoethyl)-6-oxo-2-phenyl-1,6-dihydropyrimidin-5-yl)-2-fluoro-3′-methoxy-[1,1′-biphenyl]-4-carboxamide], the 50% inhibitory concentration (IC50) is less than 100 nM.

Regarding `O=C(Cn1c(-c2ccccc2)ncc(NCCCc2ccc(F)cc2)c1=O)NCc1cc2cnccc2[nH]1` [Compound 46, N-((1H-pyrrolo[3,2-c]pyridin-2-yl)methyl)-2-(5-((3-(4-fluorophenyl)propyl)amino)-6-oxo-2-phenylpyrimidin-1(6H)-yl)acetamide], the IC50 was less than 100 nM.

With `C[C@@H](Nc1cnc(N2CC(O)C2)n(CC(=O)NCc2cc3cnccc3[nH]2)c1=O)c1ccc2oc3ccccc3c2c1` [Compound 386, (R)-N-((1H-pyrrolo[3,2-c]pyridin-2-yl)methyl)-2-(5-((1-(dibenzo[b,d]furan-2-yl)ethyl)-amino)-2-(3-hydroxyazetidin-1-yl)-6-oxopyrimidin-1(6H)-yl)acetamide], the IC50 is more than 1000 nM.

In the case of `O=C(Cn1c(-c2ccccc2)ncc(NC(=O)CCCc2ccc(Oc3ccccc3)cc2)c1=O)NCc1cc2cnccc2[nH]1` [Compound 18, N-(1-(2-(((1H-pyrrolo[3,2-c]pyridin-2-yl)methyl)amino)-2-oxoethyl)-6-oxo-2-phenyl-1,6-dihydropyrimidin-5-yl)-4-(4-phenoxyphenyl)butanamide], the IC50 is less than 100 nM.

Take `O=C(Cn1c(-c2ccc(OC3COC3)cc2)ncc(NCc2ccc3c(c2)-c2ccccc2C3(F)F)c1=O)NCc1cc2cnccc2[nH]1` [Compound 138, N-((1H-pyrrolo[3,2-c]pyridin-2-yl)methyl)-2-(5-(((9,9-difluoro-9H-fluoren-3-yl)meth-yl)amino)-2-(4-(oxetan-3-yl-oxy)phenyl)-6-oxopyrimidin-1(6H)-yl)acetamide]: the IC50 was less than 100 nM.

Take `O=C(Cc1cc(NCCCc2ccccc2)ncc1-c1ccccc1)NCc1cc2cnccc2[nH]1` [Compound 80, N-((1H-pyrrolo[3,2-c]pyridine-2-yl)methyl)-2-(5-phenyl-2-((3-phenylpropyl)amino)pyridine-4-yl)acetamide]: the IC50 was more than 1000 nM.
